± gives the expanded uncertainty stated by the source.
Assay: xn = mol fraction of the nth substance listed
Details: 101 kPa, Liquid

CC(C)CCl [1-chloro-2-methylpropane] + COC(C)(C)C
viscosity [mPa·s]
Details | 283.15 K | 288.15 K | 293.15 K | 298.15 K | 303.15 K | 308.15 K | 313.15 K
x1 = 0.0492 | 0.3948 ± 0.0078 | 0.369 ± 0.0074 | 0.3527 ± 0.0072 | 0.3369 ± 0.0069 | 0.3194 ± 0.0067 | 0.3035 ± 0.0065 | 0.2885 ± 0.0062
x1 = 0.0996 | 0.4002 ± 0.0079 | 0.3742 ± 0.0075 | 0.3573 ± 0.0072 | 0.3412 ± 0.007 | 0.3237 ± 0.0068 | 0.3076 ± 0.0065 | 0.2926 ± 0.0063
x1 = 0.1979 | 0.4107 ± 0.0081 | 0.3844 ± 0.0077 | 0.3664 ± 0.0074 | 0.3495 ± 0.0071 | 0.3322 ± 0.0069 | 0.316 ± 0.0066 | 0.3005 ± 0.0064
x1 = 0.3023 | 0.4224 ± 0.0082 | 0.3957 ± 0.0078 | 0.3764 ± 0.0075 | 0.3587 ± 0.0073 | 0.3412 ± 0.007 | 0.3248 ± 0.0068 | 0.3091 ± 0.0065
x1 = 0.4027 | 0.4338 ± 0.0084 | 0.4065 ± 0.008 | 0.3861 ± 0.0077 | 0.3676 ± 0.0074 | 0.3502 ± 0.0071 | 0.3335 ± 0.0069 | 0.3174 ± 0.0067
x1 = 0.504 | 0.4458 ± 0.0086 | 0.4178 ± 0.0082 | 0.396 ± 0.0078 | 0.3768 ± 0.0075 | 0.3594 ± 0.0073 | 0.3424 ± 0.007 | 0.3261 ± 0.0068
x1 = 0.5971 | 0.4574 ± 0.0088 | 0.4287 ± 0.0083 | 0.4057 ± 0.008 | 0.3856 ± 0.0077 | 0.3681 ± 0.0074 | 0.351 ± 0.0072 | 0.3341 ± 0.0069
x1 = 0.7036 | 0.4714 ± 0.009 | 0.442 ± 0.0085 | 0.4173 ± 0.0082 | 0.3962 ± 0.0078 | 0.3786 ± 0.0076 | 0.3611 ± 0.0073 | 0.3437 ± 0.0071
x1 = 0.8003 | 0.4848 ± 0.0092 | 0.4547 ± 0.0087 | 0.4286 ± 0.0083 | 0.4063 ± 0.008 | 0.3886 ± 0.0077 | 0.3707 ± 0.0074 | 0.3527 ± 0.0072
x1 = 0.9031 | 0.5 ± 0.0094 | 0.4689 ± 0.0089 | 0.4413 ± 0.0085 | 0.4179 ± 0.0082 | 0.3998 ± 0.0079 | 0.3813 ± 0.0076 | 0.3626 ± 0.0073
x1 = 0.9522 | 0.5078 ± 0.0095 | 0.4763 ± 0.0091 | 0.4478 ± 0.0086 | 0.4238 ± 0.0082 | 0.4054 ± 0.008 | 0.3868 ± 0.0077 | 0.3676 ± 0.0074
x1 = 1 | 0.5155 ± 0.0096 | 0.4833 ± 0.0092 | 0.454 ± 0.0087 | 0.4296 ± 0.0083 | 0.4112 ± 0.008 | 0.3921 ± 0.0078 | 0.3726 ± 0.0075

CCCCOCC [butyl ethyl ether] + CCCCCl
viscosity [mPa·s]
Details | 283.15 K | 288.15 K | 293.15 K | 298.15 K | 303.15 K | 308.15 K | 313.15 K
x2 = 0 | 0.4796 ± 0.0091 | 0.4509 ± 0.0087 | 0.4242 ± 0.0083 | 0.399 ± 0.0079 | 0.3756 ± 0.0075 | 0.356 ± 0.0072 | 0.3416 ± 0.007
x2 = 0.0515 | 0.4815 ± 0.0091 | 0.4523 ± 0.0087 | 0.4254 ± 0.0083 | 0.4002 ± 0.0079 | 0.3771 ± 0.0076 | 0.3576 ± 0.0073 | 0.3426 ± 0.007
x2 = 0.1016 | 0.4832 ± 0.0092 | 0.4536 ± 0.0087 | 0.4265 ± 0.0083 | 0.4014 ± 0.0079 | 0.3785 ± 0.0076 | 0.359 ± 0.0073 | 0.3435 ± 0.007
x2 = 0.2008 | 0.4862 ± 0.0092 | 0.4561 ± 0.0088 | 0.4286 ± 0.0083 | 0.4036 ± 0.008 | 0.3812 ± 0.0076 | 0.3618 ± 0.0073 | 0.3452 ± 0.0071
x2 = 0.3003 | 0.489 ± 0.0092 | 0.4583 ± 0.0088 | 0.4307 ± 0.0084 | 0.4058 ± 0.008 | 0.3839 ± 0.0077 | 0.365 ± 0.0074 | 0.3473 ± 0.0071
x2 = 0.4002 | 0.4914 ± 0.0093 | 0.4604 ± 0.0088 | 0.4326 ± 0.0084 | 0.408 ± 0.008 | 0.3868 ± 0.0077 | 0.368 ± 0.0074 | 0.3493 ± 0.0071
x2 = 0.5014 | 0.4934 ± 0.0093 | 0.4623 ± 0.0088 | 0.4345 ± 0.0084 | 0.4102 ± 0.008 | 0.3895 ± 0.0077 | 0.3712 ± 0.0075 | 0.3514 ± 0.0072
x2 = 0.6023 | 0.4951 ± 0.0093 | 0.4641 ± 0.0089 | 0.4364 ± 0.0084 | 0.4123 ± 0.0081 | 0.3925 ± 0.0078 | 0.3744 ± 0.0075 | 0.3537 ± 0.0072
x2 = 0.7003 | 0.4965 ± 0.0094 | 0.4657 ± 0.0089 | 0.4381 ± 0.0085 | 0.4145 ± 0.0081 | 0.3954 ± 0.0078 | 0.3777 ± 0.0076 | 0.3559 ± 0.0072
x2 = 0.8004 | 0.4977 ± 0.0094 | 0.4672 ± 0.0089 | 0.4398 ± 0.0085 | 0.4167 ± 0.0081 | 0.3985 ± 0.0079 | 0.381 ± 0.0076 | 0.3585 ± 0.0073
x2 = 0.9006 | 0.4986 ± 0.0094 | 0.4687 ± 0.0089 | 0.4416 ± 0.0085 | 0.4191 ± 0.0082 | 0.4016 ± 0.0079 | 0.3846 ± 0.0077 | 0.3612 ± 0.0073
x2 = 0.9502 | 0.4989 ± 0.0094 | 0.4694 ± 0.0089 | 0.4424 ± 0.0085 | 0.4201 ± 0.0082 | 0.4033 ± 0.0079 | 0.3866 ± 0.0077 | 0.3627 ± 0.0074
